Where only a bound is given, the exact number is not on record here.

The term melting point denotes the temperature of the solid-liquid transition. The molecule `CC(C)c1nc2c(cc1CO)COC(=O)N2c1ccc(F)cc1` registered a melting point of 154 °C.

`CN1CCN2CCCOC2(c2ccccc2)c2cc(Cl)ccc21` (centres undefined) returned a melting point of 142 to 144 °C.

`CNC(=O)COc1cccc2c1S(=O)(=O)N=C2C1=C(O)C(C(C)(C)C)N(Cc2ccc(F)cc2)C1=O` (centres undefined): the melting point was above 225 °C.

Consider `S=c1c2c(ncn2Cc2cccnc2)c2cccnc2n1-c1ccccc1`, for which the melting point lay within 222 to 224 °C.

`O=C1Nc2ccccc2C1=Cc1ccccn1` gave a melting point of 204 to 205 °C.

As for `C=C(C)C1CCC2(C(=O)O)CCC3(C)C(CCC4C5(C)CCC(O)C(C)(C)C5CCC43C)C12` (centres undefined), the melting point was 291 to 292 °C.

For the molecule `CC(NC(=O)NO)c1ccc2cc(OCc3csc(-c4ccccc4)n3)ccc2c1` (single isomer, unassigned; (-)), the melting point was in the range of 171 to 173 °C.

Molecule `COc1cc(C(C)=O)ccc1OCCC(C)N1CCN(c2nn(C(=O)c3ccccc3)c3cc(F)ccc23)CC1` (centres undefined) returned a melting point of 138 to 140 °C.

`O=C(O)C[C@H]1CC[C@H](Cn2nc(-c3cccs3)c(Cc3cc4c(cc3Cl)OCO4)c2C(=O)O)CC1` yielded a melting point of 240 °C.

Molecule `CCc1nc2cc(OC)c(OC)cc2c(-c2ccc(OC)c(OC)c2)c1CO` returned a melting point of 192 to 193 °C.

As to `COc1ccc2c(c1)OCC(c1ccc(F)cc1)C2c1ccc(OCCN2CCCCC2)cc1` (centres undefined), the melting point lay in the range of 93.5 to 94.5 °C.

Molecule `CN1CCN(c2nc3sc4c(NCc5ccccn5)ncnc4c3c3c2COC(C)(C)C3)CC1` came in with a melting point of 218 to 219 °C.

Turning to `COc1cc(C)ccc1Oc1ccc(C=O)cc1C#N`, the melting point is 112 to 113 °C.

`c1cc2c(s1)CCCCN2` came in with a melting point of 55 to 57 °C.

`COc1ccc(C2C(C(=O)c3ccc(C(C)C)cc3)=C(O)C(=O)N2c2ccc(C)nn2)cc1` (centres undefined): the melting point was 263 to 267 °C.

As to `Cc1cc2c(c(C)c1O)C(C)(C)C(C)C2C` (centres undefined), the melting point lay within 55 to 57 °C.

`CN(C(=O)C(Br)OC(N)=O)c1ccccc1` (centres undefined) gave a melting point of 136 to 138 °C.

In turn, `CSc1ccc(-n2cnc3ccc(-c4nnc(CC(F)(F)F)o4)cc32)cc1` gave a melting point of 190 to 192 °C.

`Cc1ccc2c(c1)CCC1=C2CCC(=O)N1`: the melting point was in the range of 204 to 205 °C.

`Cc1noc(-c2cnc(NC(=O)[C@H](CC3CCCC3)c3ccc(S(C)(=O)=O)c(Cl)c3)cn2)n1` returned a melting point of 101 to 105 °C.

In the case of `[N-]=[N+]=NCc1n[nH]nc1-c1ccc(Cl)cc1C(=O)c1ccccc1`, the melting point lay in the range of 128 to 131 °C.

Molecule `Cc1cc(=O)[nH]nc1-c1ccc(-c2n[nH]c(=O)cc2C)cc1` had a melting point above 250 °C.

Molecule `N#Cc1ccc(Cc2cccnc2)cc1` had a melting point of 155 to 157 °C.

In the case of `COc1nc(C(F)(F)F)cc(=O)n1-c1cc(O)c(Cl)cc1F`, the melting point lay in the range of 147 to 149 °C.

Molecule `Cc1ccccc1-c1ccc(C(=O)N2Cc3ccc(C(=O)NCc4cccnc4)n3Cc3ccccc32)cc1` came in with a melting point of 176 to 177 °C.

For the molecule `CNC(=O)N1CC(Oc2cccc(C(F)(F)F)c2)C1`, the melting point was 145 to 147 °C.

Molecule `Cc1nc2nc[nH]c2c(=O)[nH]1` registered a melting point above 300 °C.

Turning to `CC(C)(CO)c1ccc(Cl)cc1`, the melting point lay within 46 to 48 °C.

As for `CC(=O)OCCC1CCn2c(c(C3=C(c4cn(C)c5ccccc45)C(=O)OC3=O)c3ccccc32)C1` (centres undefined), the melting point lay in the range of 159 to 161 °C.

The molecule `CCCCc1c(/C=C/C(=O)Oc2ccc([N+](=O)[O-])cc2)ccc2c(OC)cccc12` showed a melting point of 115 to 116 °C.

With `CCCCCC(O)CCCC(Cc1ccc(C=CC(=O)O)cc1)C(C)=O` (centres undefined), the melting point lay in the range of 87 to 92 °C.

`COc1ccc(C(=O)Nc2c(C)c(C)c3c(c2C)C(c2ccc(C(C)C)cc2)C(C)(C)O3)cc1` (centres undefined) registered a melting point of 202 to 205 °C.

Regarding `C=CCOC(=O)c1cccc(NC(=O)NCNC(=O)c2ccccc2C(=O)c2ccccc2)c1`, the melting point is 68 to 71 °C.

In turn, `CCCCc1cccc2[nH]c(C(=O)OCC)cc(=O)c12` yielded a melting point of 132 to 133 °C.

For the molecule `S=C1NCCSc2ccsc21`, the melting point fell in the range of 138 to 139 °C.

Turning to `Cn1c(S(=O)(=O)c2ccc(=O)[nH]n2)cc2ccccc21`, the melting point is 233 to 235 °C.

The molecule `CCn1c2ccc(C(=O)CCCCl)cc2c2cc(C(=O)CCCCl)ccc21` had a melting point of 106 to 108 °C.

On to `NC(=Nc1ccc2[nH]c3ccccc3c2c1)c1cccs1`, for which the melting point lay within 243 to 244 °C.

The molecule `C=CCNc1nc(NCC=C(C)C)c2scc(C)c2n1` returned a melting point of 114 to 115 °C.

For the molecule `COC(=O)c1cc(C(=O)c2c(C)c(NS(=O)(=O)c3cccc(OC)c3)c3ccccn23)ccc1NC(=O)C(F)(F)F`, the melting point was found to be 220 °C.

For `Cc1cc(CCc2cc(C)c(O)c(C)c2Br)c(Br)c(C)c1O`, the melting point is 191 to 194 °C.

In turn, `COc1cc(Oc2cccc(C(F)(F)F)c2)nc(C(=O)NN=CCC#N)c1` registered a melting point of 98 to 100 °C.

For `O=C1COc2cc(NC(=O)C(=O)N3CCC(Cc4ccc(F)cc4)CC3)ccc2N1`, the melting point lay in the range of 209 to 212 °C.

Molecule `N[C@@H](CO)C(=O)Nn1cccc1` yielded a melting point of 135 to 137 °C.

As to `Cn1nc2ccccc2c1C(=O)NCC1CCN(CCc2ccc(F)cc2F)CC1`, the melting point fell in the range of 122 to 126 °C.

As to `Cc1ccc(N(C(=O)CCl)c2c(C)cccc2Cl)cc1`, the melting point was 113 to 114 °C.

In turn, `CN(Cc1ccccc1)c1nc(N)nc(-c2cc(Cl)ccc2Cl)n1` displayed a melting point of 163 to 164 °C.

In turn, `COc1ccc(-c2nc(CCC(=O)O)oc2-c2ccccc2)cc1` came in with a melting point of 118 to 120 °C.

Regarding `COC(=O)Cc1ccccc1OCc1cncc(OCc2nc(-c3ccccc3)oc2C)c1`, the melting point fell in the range of 77 to 78 °C.

In turn, `O=c1[nH]c(=O)n(C2CC(OCc3ccccc3Cl)C(CO)O2)cc1F` (centres undefined) registered a melting point of 78 to 80 °C.

Take `CC1Cc2c(F)c(F)cc3c(=O)c(C(=O)O)cn(c23)N1C` (centres undefined): the melting point was 270 to 271 °C.

In the case of `CC(C)C(=O)N[C@@H](CSC(=O)c1ccccc1)C(=O)NCCSC(=O)c1ccccc1`, the melting point fell in the range of 154 to 156 °C.

Regarding `COC(=O)c1cc(CO)nn1-c1ncccc1Cl`, the melting point stood at 104 °C.

`COCCCS(=O)(=O)NC(=O)CC(C)c1ccc(OCCOC)cc1Oc1ncc(C(F)(F)F)cc1Cl` (centres undefined) registered a melting point of 107 to 109 °C.

`Clc1ccnc2[nH]c3ccc(Br)cc3c12` had a melting point above 220 °C.

`CCOCc1nc2c(N)nc3ccccc3c2n1CCC(N)=O` returned a melting point above 250 °C.

In turn, `O=C(N[C@H]1CC[C@H](CCN2CCC(c3cccc4c3CCO4)CC2)CC1)c1ccc(N2CCCCC2)cc1` displayed a melting point of 248 °C.

In turn, `COc1ccc(C(C)CNC(=O)C(N)=O)cc1OC1CCCC1` (centres undefined) yielded a melting point of 175 to 176 °C.

For `NC(=O)c1c(Cl)cc(Cl)c(OCC(=O)O)c1Cl`, the melting point is 261 to 262 °C.

As for `CC(=O)C(=Cc1ccc(O)c(O)c1)C(C)=O`, the melting point is 134 to 137 °C.

Molecule `CC(=O)N1CCN(c2cccc(-n3cnc4cc(C(C)O)ccc43)c2)CC1` (centres undefined) yielded a melting point of 126 °C.

`Cc1c(C)c2c(c(C)c1O)CCC(C)(CCOc1ccc(CC3SC(=N)NC3=O)cc1)O2` (centres undefined) showed a melting point of 175 to 180 °C.

In the case of `CN1C(=O)Cc2cc3ccccc3cc2S1(=O)=O`, the melting point is 126 to 127 °C.

With `COC(=O)C1C(=O)N(C)C(=O)c2ccc(Cl)cc21` (centres undefined), the melting point fell in the range of 166 to 167 °C.

`CCCCCCCCCCCCCCCCCCOc1cccc(C(=O)C(=O)O)c1` registered a melting point of 77 to 79 °C.

On to `CCCc1[nH]c2ccc(OC)cc2c1C=O`, for which the melting point was 166 to 168 °C.

The molecule `CN1Cc2nc3ccccc3c(=O)n2-c2ccccc2C1=O` came in with a melting point of 204 to 206 °C.

`O=[N+]([O-])c1cn2c(n1)O[C@@H](COc1ccc(N3CCC(Cc4ccc(OC(F)(F)F)cc4)CC3)cc1)C2`: the melting point lay in the range of 160 to 164 °C.

On to `CN(C)C(=O)c1c(F)cccc1I`, for which the melting point lay in the range of 86 to 89 °C.

`CCN(C(=O)N1CCN(c2cc(C)cc(C)c2)CC1)c1cc2ccccc2nc1OC`: the melting point fell in the range of 84 to 86 °C.

As for `Cn1c(=O)c(-c2ccc(Cl)cc2Cl)cc2c3cc(-c4ccno4)ccc3[nH]c21`, the melting point was 320 to 323 °C.

For the molecule `CC(C)(C)c1ccc(OCC(=O)O)cc1`, the melting point was in the range of 93 to 95 °C.

Turning to `COC(=O)c1cc(Cl)cnc1NCc1ccc(OC)cc1`, the melting point lay within 75 to 77 °C.

Take `Clc1cccc2c1Sc1ccccc1N2C1=CCCN1C1=NCCC1`: the melting point lay in the range of 195 to 197 °C.

Consider `CCOc1ccc(Oc2c([N+](=O)[O-])cc(C(=O)OC)cc2[N+](=O)[O-])cc1`, for which the melting point fell in the range of 101 to 103 °C.

Molecule `CCOC(=O)C(O)(Cn1cncn1)c1ccc(F)cc1` (centres undefined) displayed a melting point of 142 to 144 °C.

In the case of `Cn1nc(-c2ccccc2C=O)c2ccccc21`, the melting point was found to be 106 °C.

As to `CC1(C)OC(=O)Nc2ccc(/C=C/C(N)=O)cc21`, the melting point was 196 to 198 °C.

Take `CCOC(=O)c1ccc(NC(=O)C=C(C)c2ccc(Cl)cc2)cc1`: the melting point lay in the range of 150 to 152 °C.

`CSC(=S)N1CCN(Cc2ccccc2N(C)C)CC1` showed a melting point of 90 to 91 °C.

Turning to `COC(=O)C1=CCC2=Nc3ccccc3C2=C1C(=O)OC`, the melting point is 219 °C.

With `CC(=O)OC1CSC(Oc2cccc(-c3cc(Cl)ccn3)c2)C(OC(C)=O)C1OC(C)=O` (centres undefined), the melting point came to 152 °C.

The molecule `O=C1c2ccccc2-c2[nH]nc(-c3ccncc3)c21` came in with a melting point above 300 °C.

Turning to `C=CCOc1cc(Br)ccc1C(=O)OC`, the melting point turned out to be 62 °C.

On to `COc1cc(OC)c2c(c1)C(C)(C)C(c1ccc(OC)c(OC)c1)C(C)C(=O)O2` (centres undefined), for which the melting point lay in the range of 163 to 165 °C.

With `CC(C(=O)O)c1ccc2cc(OCCCCCCc3cccc(O)c3O)ccc2c1` (centres undefined), the melting point is 136 to 139 °C.

In turn, `CCCCC(Cc1ccc(OCCNC(=O)c2ccc(-c3ccc(OC)cc3)cc2)cc1)C(=O)O` (centres undefined) had a melting point of 166 to 168 °C.

For `CC1CCN(CCNc2nn3cnnc3c3c2CCCC3)CC1`, the melting point lay within 180 to 181 °C.

Molecule `COC(=O)CCNc1ccc(CNC(=O)C2Cc3ccccc3N2S(=O)(=O)c2ccc(-c3cccc(C(F)(F)F)c3)cc2)cc1` (centres undefined) came in with a melting point of 61 °C.

Source of the values: a melting point compilation (Tetko et al.; mined from patent text by program, amines drawn as free bases though some values may be those of a salt).
